Data from patent US5278065A, “Recombinant DNA endoding an erythropoietin receptor” (Genetics Institute, Inc., priority 1991, dated 1994).
Where two headings read alike, the source gives them in different places.

B1: secreted EPO receptor: secreted human erythropoietin receptor lacking transmembrane and cytoplasmic domains, tested as conditioned media from a CHO line (protein, UniProt P19235 25-250, looked up)
extracellular domain: APPPNLPDPKFESKAALLAARGPEELLCFTERLEDLVCFWEEAASAGVGPGNYSFSYQLEDEPWKLCRLHQAPTARGAVRFWCSLPTADTSSFVPLELRVTAASGAPRYHRVIHINEVVLLDAPVGLVARLADESGHVVLRWLPPPETPMTSHIRYEVDVSAGNGAGSVQRVEILEGRTECVLSNLRGRTRYTFAVRARMAEPSFGGFWSAWSEPVSLLTPSDLDP
modifications: extracellular domain
notes: secreted human erythropoietin receptor lacking transmembrane and cytoplasmic domains, tested as conditioned media from a CHO line

What was measured:
[1] = tested on: EPO receptor on MEL cells; test: Erythropoietin surface binding assay on MEL cell monolayers; set-up: species or system mouse; settings: single affinity; radioiodinated human EPO, 8 hours at 4° C.; read-out: affinity of MEL cell EPO-R for EPO
Experimental: FIG. 4 is a saturation curve showing the binding of iodinated EPO to MEL cells. Non-specific binding was determined by co-incubation with 100 nM of unlabeled EPO. The MEL cells were grown on fibronectin monolayers and were incubated with various concentrations of radioiodinated human EPO for eight hours at 4° C. The specific binding is shown as the difference between total and non-specific binding. The inset is a Scatchard plot of the same data. […] For these experiments, MEL cells, grown as monolayers on fibronectin coated dishes, were incubated for eight hours at 4° C. with ^125 I EPO. Specific binding and nonspecific binding of [^125 I]-EPO, measured in the presence of 100 nM unlabeled EPO was determined. Nonspecific binding was approximately half of the total (=specific plus nonspecific) binding. Because of the relatively low number of EPO-R on MEL cells and, therefore, the small specific binding observed at low concentrations of [^125 I-EPO], in the 10-50 pM range, it is not possible to rule out a high affinity EPO-R in this range. […] Monolayers were washed, solubilized, and counted in the gamma counter as described. […] The radioactivity bound in the assays with excess unlabeled erythropoietin (nonspecific binding) was subtracted from the total binding to yield the specific binding. […]

human EPO receptor = test: Erythropoietin surface binding assay on stable CHO lines expressing the human EPO receptor; settings: one hour at 37° C.
Experimental: Confluent monolayers of MEL cells, grown in 60 mm bacteriophage petri dishes pre-coated with fibronectin, were prepared (Patel and Lodish, supra (1987)). Confluent monolayers of COS-1 cells, transfected by the DEAE dextran method 72 hours before the binding assay with either two micrograms of clone 190 cDNA in pXM or two micrograms of pXM without cDNA insert (mock-transfected) per monolayer, were prepared. Monolayers were washed at 4° C. with HBS/Hepes three times. Radioiodinated EPO (10 pM to 2nM range) was added to each monolayer in LBB. Incubations were performed at 4° C. for eight hours with gentle rocking. Monolayers were washed, solubilized, and counted in the gamma counter as described. Assays for nonspecific binding were performed in which the assay mixture contained a 100-fold excess 1(100 nM) of unlabeled erythropoietin. The radioactivity bound in the assays with excess unlabeled erythropoietin (nonspecific binding) was subtracted from the total binding to yield the specific binding. All binding assays were run in duplicate. The level of cell surface expression of the human EPO receptor was determined by the erythropoietin surface binding assay, described above for the expression of the murine EPO receptor in COS-1 cells, except that radioiodinated EPO, from 10 pM to 2 nM, was bound for one hour at 37° C. in the presence of 0.02% (w/v) sodium azide and 1% (v/v) aprotinin.

[2] = molecular target: EPO-responsive splenic erythroblasts; settings: FVA-injected mice, cited from earlier work
EPO receptor = settings: most cell surface binding studies; read-out: Kd, single class of binding sites; cited from earlier work
[3] = purified, homogeneous erythropoietin; cited from earlier work
[4] = tested on: recombinant murine EPO receptor expressed in COS cells; test: Erythropoietin surface binding assay on COS-EPO-R transfectants (clone 190); set-up: species or system mouse
Experimental: FIG. 5 is a saturation curve showing the binding of iodinated EPO to cells expressing recombinant EPO-receptors. COS-EPO-R transfectants were incubated with various concentrations of radioiodinated human EPO for eight hours at 4° C. Non-specific binding was determined by incubating radioiodinated EPO with COS-1 monolayers, mock treated with the pXM vector (without the EPO-R cDNA insert). Also, for comparison, one binding point was determined for [^125 I]-EPO binding to COS EPO-R transfectants in the presence of […] unlabeled EPO. The inset is a Scatchard plot of the same data. Binding was compared for COS transfectants expressing EPO-R (specific binding) versus COS cells mock-transfected with the pXM plasmid without the EPO-R cDNA insert (non-specific binding). At all EPO concentrations, specific binding was approximately […] the binding to mock-transfected cells. By the above criterion, over 85% of this binding is deemed specific, though the "non-specific" binding could represent low-affinity binding to the transfected EPO receptor. […] Confluent monolayers of MEL cells, grown in 60 mm bacteriophage petri dishes pre-coated with fibronectin, were prepared (Patel and Lodish, supra (1987)). Confluent monolayers of COS-1 cells, transfected by the DEAE dextran method 72 hours before the binding assay with either two micrograms of clone 190 cDNA in pXM or two micrograms of pXM without cDNA insert (mock-transfected) per monolayer, were prepared. Monolayers were washed at 4° C. with HBS/Hepes three times. Radioiodinated EPO (10 pM to 2nM range) was added to each monolayer in LBB. Incubations were performed at 4° C. for eight hours with gentle rocking. Monolayers were washed, solubilized, and counted in the gamma counter as described. Assays for nonspecific binding were performed in which the assay mixture contained a 100-fold excess 1(100 nM) of unlabeled erythropoietin. The radioactivity bound in the assays with excess unlabeled erythropoietin (nonspecific binding) was subtracted from the total binding to yield the specific binding. All binding assays were run in duplicate.

FDCPE cells = test: Inhibition of the EPO response of FDCPE cells by secreted EPO receptor; type: cell-based, mouse; settings: 0.4, 0.8 and 1 u/ml EPO; serial dilutions of CHO conditioned media (ca. 0.5 μg/ml secreted receptor)
Experimental: The FDCPE and 32DE cell lines were further characterized by their dose dependent response to EPO. A 96 well plate was seeded with 1×10^4 cells/well and incubated with EPO (0.0001 to 10 u/ml) for 24 hours and then labelled with [^3 H]-thymidine for 4hr, the cells were collected and counted for thymidine incorporation. The cells respond to EPO dose dependent manner from 0.01 to 1 u/ml.
FDCPE cells were incubated and assayed with either 0.4, 0.8 and 1 u/ml of EPO as described above but also with serial dilutions of media from a CHO line expressing the secreted EPO receptor (ca. 0.5 μg/ml).

Row | Molecule | Kd [1] [pM] | Kd (human EPO receptor; CHO cell line 9'.250, 34% of sites, Scatchard analysis, read-out: affinity for EPO, higher affinity sites) [pM] | Kd (human EPO receptor; CHO cell line 9'.250, Scatchard analysis, read-out: affinity for EPO, remainder of sites) [pM] | Kd (human EPO receptor; CHO cell line 10'.1.25, read-out: affinity for EPO, single affinity) [pM] | Kd ([2]; read-out: dissociation constant, high affinity binding site) [pM] | Kd ([2]; read-out: dissociation constant, low affinity binding site) [pM] | Kd (EPO receptor) [pM] | specific activity [3] | Kd ([4]; COS transfectants, Scatchard analysis, 8 hours at 4° C., read-out: dissociation constant, high affinity receptor) [pM] | Kd ([4]; COS transfectants, Scatchard analysis, 8 hours at 4° C., read-out: dissociation constant, low affinity receptor) [pM] | Kd ([4]; cell type not stated, read-out: dissociation constant of the high affinity receptor) [pM] | inhibition of [3H]-thymidine incorporation into FDCPE cells (FDCPE cells)
1 | erythropoietin [EPO] | ~240 | 126 | 660 | 3000 | 100 | 800 | ~800 | at least 160,000 IU per absorbance unit at 280 nanometers | 30 | 210 | 50 | 
2 | B1 |  |  |  |  |  |  |  |  |  |  |  | inhibited the incorporation of [^3 H]-thymidine into the FDCPE cells
